Results: patent US20020137929A1, “1 - (3-heterocyclylphenyl) isothiourea, -isourea, -guanidine and -amidine herbicidal agents” (Intellectual Property Department, BASF Aktiengesellschaft, priority 1998, published 2002)

Legend:
ECHCG (Barnyardgrass) = assay: Postemergence herbicidal evaluation; assay type: in vivo, Echinochloa crus-galli; settings: postemergence
How it was run: (§1)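 Scores (0–9) reflect plant stand, vigor, malformation, size, chlorosis and general appearance relative to control, read 4 to 5 weeks after treatment and averaged where tests were repeated. Application: about 0.0156–0.500 kg/ha sprayed at 40 psi onto two-week seedlings.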

AMBEL (Ragweed, Common) = assay: Postemergence herbicidal evaluation; assay type: in vivo, Ambrosia artemisifolia; settings: postemergence
How it was run: as §1

CYPSE (Flatsedge) = assay: Preemergence weed control under flooded paddy conditions; assay type: in vivo, Cyperus serotinus; settings: rated 3-4 weeks after treatment
How it was run: (§2)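 Visual injury scored 0-9 against control three to four weeks post-treatment, greenhouse-grown. Application: acetone/water (50/50) solutions dosed directly into flood water (1.5-3 cm over silt loam, planted top 0.5 cm), roughly 0.0313 to 0.500 kg/ha active ingredient.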

ZEAMX (Corn, Field) [1] = assay: Postemergence herbicidal evaluation; assay type: in vivo, Zea mays; settings: postemergence
How it was run: as §1

CASOB (Sicklepod) = assay: Preemergence herbicidal evaluation; assay type: in vivo, Cassia obtusifolia; settings: rated 4-5 weeks after treatment
How it was run: (§3)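 Rating at 4–5 wk post-spray on a 0–9 visual scale vs control. Application: aqueous acetone, ~0.0156–0.500 kg/ha, to soil surface after seeding, preemergence.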

ZEAMX (Corn, Field) [2] = assay: Preemergence herbicidal evaluation; assay type: in vivo, Zea mays; settings: rated 4-5 weeks after treatment
How it was run: as §3

[3] = test system: ECHORC (Watergrass (Calif.)); assay: Preemergence weed control under flooded paddy conditions; assay type: in vivo, Echinochloa oryzoides; settings: rated 3-4 weeks after treatment
How it was run: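 Seeds or propagules sown in silt loam kept flooded 1.5-3 cm; compounds in 50/50 acetone/water pipetted into flood water at about 0.0313 to 0.500 kg/ha. Greenhouse; visual 0-9 rating versus untreated control 3-4 weeks after treatment.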

[4] = test system: CHEAL (Lambsquarters, Common); assay: Postemergence herbicidal evaluation; assay type: in vivo, Chenopodium album; settings: postemergence
How it was run: as §1

[5] = test system: TRZAWR (Wheat, Winter, cv Riband); assay: Postemergence herbicidal evaluation; assay type: in vivo, Triticum aestivum; settings: postemergence
How it was run: as §1

MOOVA (Monochoria) = assay: Preemergence weed control under flooded paddy conditions; assay type: in vivo, Monochoria vaginalis; settings: rated 3-4 weeks after treatment
How it was run: as §2

[6] = test system: CHEAL (Lambsquarters, Common); assay: Preemergence herbicidal evaluation; assay type: in vivo, Chenopodium album; settings: rated 4-5 weeks after treatment
How it was run: as §3

ORYSAT (Rice, Tebonnet) [7] = assay: Postemergence herbicidal evaluation; assay type: in vivo, Oryza sativa, (L.) Tebonnet; settings: postemergence
How it was run: as §1

SETVI (Foxtail, Green) = assay: Preemergence herbicidal evaluation; assay type: in vivo, Setaria viridis; settings: rated 4-5 weeks after treatment
How it was run: as §3

ORYSAT (Rice, Tebonnet) [8] = assay: Preemergence herbicidal evaluation; assay type: in vivo, Oryza sativa, (L.) Tebonnet; settings: rated 4-5 weeks after treatment
How it was run: as §3

CC1SC(=Nc2cc(N3C(=O)C4=C(CCCC4)C3=O)c(F)cc2Cl)N(C)C1=O (stereo not drawn) [Compound 4]
ECHCG herbicidal rating (ECHCG (Barnyardgrass); rate 0.0313 kg/ha): 0.0
ECHCG herbicidal rating (ECHCG (Barnyardgrass); rate 0.0625 kg/ha): 0.0
ECHCG herbicidal rating (ECHCG (Barnyardgrass); rate 0.1250 kg/ha): 0.0
ECHCG herbicidal rating (ECHCG (Barnyardgrass); rate 0.2500 kg/ha): 4.0
ECHCG herbicidal rating (ECHCG (Barnyardgrass); rate 0.5000 kg/ha): 2.0
AMBEL herbicidal rating (AMBEL (Ragweed, Common); rate 0.0313 kg/ha): 0.0
AMBEL herbicidal rating (AMBEL (Ragweed, Common); rate 0.0625 kg/ha): 0.0
AMBEL herbicidal rating (AMBEL (Ragweed, Common); rate 0.1250 kg/ha): 2.0
AMBEL herbicidal rating (AMBEL (Ragweed, Common); rate 0.2500 kg/ha): 6.0
AMBEL herbicidal rating (AMBEL (Ragweed, Common); rate 0.5000 kg/ha): 6.0
Herbicidal rating CYPSE (CYPSE (Flatsedge); 0.0313 kg/ha): 0.0
Herbicidal rating CYPSE (CYPSE (Flatsedge); 0.0625 kg/ha): 0.0
Herbicidal rating CYPSE (CYPSE (Flatsedge); 0.1250 kg/ha): 0.0
Herbicidal rating CYPSE (CYPSE (Flatsedge); 0.2500 kg/ha): 0.0
Herbicidal rating CYPSE (CYPSE (Flatsedge); 0.5000 kg/ha): 0.0
ZEAMX herbicidal rating (ZEAMX (Corn, Field) [1]; rate 0.0313 kg/ha): 3.0
ZEAMX herbicidal rating (ZEAMX (Corn, Field) [1]; rate 0.0625 kg/ha): 3.5
ZEAMX herbicidal rating (ZEAMX (Corn, Field) [1]; rate 0.1250 kg/ha): 4.0
ZEAMX herbicidal rating (ZEAMX (Corn, Field) [1]; rate 0.2500 kg/ha): 4.0
ZEAMX herbicidal rating (ZEAMX (Corn, Field) [1]; rate 0.5000 kg/ha): 4.0
CASOB preemergence herbicidal rating (CASOB (Sicklepod); rate 0.1250 kg/ha): 0.0
CASOB preemergence herbicidal rating (CASOB (Sicklepod); rate 0.2500 kg/ha): 2.0
CASOB preemergence herbicidal rating (CASOB (Sicklepod); rate 0.5000 kg/ha): 7.0
ZEAMX preemergence herbicidal rating (ZEAMX (Corn, Field) [2]; rate 0.1250 kg/ha): 2.0
ZEAMX preemergence herbicidal rating (ZEAMX (Corn, Field) [2]; rate 0.2500 kg/ha): 2.0
ZEAMX preemergence herbicidal rating (ZEAMX (Corn, Field) [2]; rate 0.5000 kg/ha): 4.0
Herbicidal rating ECHORC ([3]; 0.0313 kg/ha): 2.0
Herbicidal rating ECHORC ([3]; 0.0625 kg/ha): 4.0
Herbicidal rating ECHORC ([3]; 0.1250 kg/ha): 7.0
Herbicidal rating ECHORC ([3]; 0.2500 kg/ha): 8.0
Herbicidal rating ECHORC ([3]; 0.5000 kg/ha): 9.0
CHEAL herbicidal rating ([4]; rate 0.0313 kg/ha): 2.0
CHEAL herbicidal rating ([4]; rate 0.0625 kg/ha): 6.0
CHEAL herbicidal rating ([4]; rate 0.1250 kg/ha): 8.0
CHEAL herbicidal rating ([4]; rate 0.2500 kg/ha): 4.0
CHEAL herbicidal rating ([4]; rate 0.5000 kg/ha): 4.0
TRZAWR herbicidal rating ([5]; rate 0.0313 kg/ha): 3.0
TRZAWR herbicidal rating ([5]; rate 0.0625 kg/ha): 3.5
TRZAWR herbicidal rating ([5]; rate 0.1250 kg/ha): 4.0
TRZAWR herbicidal rating ([5]; rate 0.2500 kg/ha): 4.5
TRZAWR herbicidal rating ([5]; rate 0.5000 kg/ha): 4.5
Herbicidal rating MOOVA (MOOVA (Monochoria); 0.0313 kg/ha): 2.0
Herbicidal rating MOOVA (MOOVA (Monochoria); 0.0625 kg/ha): 7.0
Herbicidal rating MOOVA (MOOVA (Monochoria); 0.1250 kg/ha): 8.0
Herbicidal rating MOOVA (MOOVA (Monochoria); 0.2500 kg/ha): 9.0
Herbicidal rating MOOVA (MOOVA (Monochoria); 0.5000 kg/ha): 9.0
CHEAL preemergence herbicidal rating ([6]; rate 0.1250 kg/ha): 0.0
CHEAL preemergence herbicidal rating ([6]; rate 0.2500 kg/ha): 2.0
CHEAL preemergence herbicidal rating ([6]; rate 0.5000 kg/ha): 9.0
ORYSAT herbicidal rating (ORYSAT (Rice, Tebonnet) [7]; rate 0.0313 kg/ha): 1.0
ORYSAT herbicidal rating (ORYSAT (Rice, Tebonnet) [7]; rate 0.0625 kg/ha): 1.0
ORYSAT herbicidal rating (ORYSAT (Rice, Tebonnet) [7]; rate 0.1250 kg/ha): 2.5
ORYSAT herbicidal rating (ORYSAT (Rice, Tebonnet) [7]; rate 0.2500 kg/ha): 1.5
ORYSAT herbicidal rating (ORYSAT (Rice, Tebonnet) [7]; rate 0.5000 kg/ha): 3.0
SETVI preemergence herbicidal rating (SETVI (Foxtail, Green); rate 0.1250 kg/ha): 2.0
SETVI preemergence herbicidal rating (SETVI (Foxtail, Green); rate 0.2500 kg/ha): 4.0
SETVI preemergence herbicidal rating (SETVI (Foxtail, Green); rate 0.5000 kg/ha): 9.0
ORYSAT preemergence herbicidal rating (ORYSAT (Rice, Tebonnet) [8]; rate 0.1250 kg/ha): 0.0
ORYSAT preemergence herbicidal rating (ORYSAT (Rice, Tebonnet) [8]; rate 0.2500 kg/ha): 2.0
ORYSAT preemergence herbicidal rating (ORYSAT (Rice, Tebonnet) [8]; rate 0.5000 kg/ha): 4.0
